Laboratory results taken from patent US9862716B2, “TRKA kinase inhibitors, compositions and methods thereof” (Merck Sharp & Dohme Corp., priority 2014, dated 2018).

These compounds were tested against T1, human TrkA receptor (Homo sapiens, UniProt P04629) (assay: DiscoverX PathHunter TrkA functional assay (NGF-stimulated U2OS cells)). Conditions: U2OS cells expressing human TrkA-PK, Shc1-EA and p75NTR; compound 1 h, then NGF at ~80% of maximal response for 3 h; luminescence.
T1 construct: host or cells: U2OS cells (PathHunter cell line)
Format: cell-based

T1 sequence (P04629 33-796): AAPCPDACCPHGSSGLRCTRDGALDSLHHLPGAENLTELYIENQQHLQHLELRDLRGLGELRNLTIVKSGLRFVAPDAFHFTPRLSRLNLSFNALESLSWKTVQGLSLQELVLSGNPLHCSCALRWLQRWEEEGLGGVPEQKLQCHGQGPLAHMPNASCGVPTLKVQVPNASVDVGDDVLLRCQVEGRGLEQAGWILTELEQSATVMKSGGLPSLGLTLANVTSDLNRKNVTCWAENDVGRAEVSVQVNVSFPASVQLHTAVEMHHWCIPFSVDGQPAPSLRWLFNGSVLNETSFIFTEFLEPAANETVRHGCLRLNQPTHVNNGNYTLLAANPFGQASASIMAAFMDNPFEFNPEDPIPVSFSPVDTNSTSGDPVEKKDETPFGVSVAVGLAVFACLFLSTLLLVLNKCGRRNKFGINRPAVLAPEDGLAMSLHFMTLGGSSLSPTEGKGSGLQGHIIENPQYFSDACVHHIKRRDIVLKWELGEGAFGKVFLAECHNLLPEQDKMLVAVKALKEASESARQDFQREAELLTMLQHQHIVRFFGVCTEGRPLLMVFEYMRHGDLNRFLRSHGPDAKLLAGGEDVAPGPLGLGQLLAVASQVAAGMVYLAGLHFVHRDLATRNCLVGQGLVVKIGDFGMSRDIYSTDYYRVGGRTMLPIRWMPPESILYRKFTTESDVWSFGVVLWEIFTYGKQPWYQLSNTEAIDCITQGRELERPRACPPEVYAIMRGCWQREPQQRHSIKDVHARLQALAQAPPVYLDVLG

| SMILES | IC50 |
| --- | --- |
| O=C(Nc1c(-c2ccccc2)nn2ccccc12)c1cc(-c2ncccn2)c(C(F)(F)F)cc1F [Compound 85, 2-fluoro-N-(2-phenylpyrazolo[1,5-a]pyridin-3-yl)-5-pyrimidin-2-yl-4-(trifluoromethyl) benzamide] | 5 nM |
| Cn1ccc(-c2cc(C(=O)Nc3c(-c4ccccc4)nc4cc(N5CCCC5)ccn34)ccc2C(F)(F)F)n1 [Compound 89, 3-(1-methyl-1H-pyrazol-3-yl)-N-(2-phenyl-7-pyrrolidin-1-ylimidazo[1,2-a]pyridin-3-yl)-4-(trifluoromethyl) benzamide] | 5 nM |
| O=C(O)c1ccc2[nH]c(-c3ccccc3)c(NC(=O)c3cc(-c4ncccn4)c(C(F)(F)F)cc3F)c2c1 [Compound 91, 3-({[2-fluoro-5-pyrimidin-2-yl-4-(trifluoromethyl)phenyl]carbonyl}amino)-2-phenyl-1H-indole-5-carboxylic acid] | 11 nM |
| NC(=O)c1ccc2[nH]c(-c3ccccc3)c(NC(=O)c3cc(-c4ncccn4)c(C(F)(F)F)cc3F)c2c1 [Compound 92, 3-({[2-fluoro-5-pyrimidin-2-yl-4-(trifluoromethyl)phenyl]carbonyl}amino)-2-phenyl-1H-indole-5-carboxamide] | 8.7 nM |
| Cc1cc(C(F)(F)F)c(-c2ccn(C)n2)cc1C(=O)Nc1c(-c2ccccc2)nc2cc([C@@H](C)O)ccn12 [Compound 93, N-{7-[(1R)-1-hydroxyethyl]-2-phenylimidazo[1,2-a]pyridin-3-yl}-2-methyl-5-(1-methyl-1H-pyrazol-3-yl)-4-(trifluoromethyl) benzamide] | 4.7 nM |
| Cn1ccc(-c2cc(C(=O)Nc3c(-c4ccccc4)nn4ccc(C(C)(C)O)cc34)ccc2C(F)(F)F)n1 [Compound 96, N-[5-(1-hydroxy-1-methylethyl)-2-phenylpyrazolo[1,5-a]pyridin-3-yl]-3-(1-methyl-1H-pyrazol-3-yl)-4-(trifluoromethyl) benzamide] | 6.7 nM |
| Cn1ccc(-c2cc(C(=O)Nc3c(-c4ccccc4)nc4cc(CCN)ccn34)ccc2C(F)(F)F)n1 [Compound 100, N-[7-(2-aminoethyl)-2-phenylimidazo[1,2-a]pyridin-3-yl]-3-(1-methyl-1H-pyrazol-3-yl)-4-(trifluoromethyl) benzamide] | 13 nM |
| CC(=O)NCCc1ccn2c(NC(=O)c3ccc(C(F)(F)F)c(-c4ccn(C)n4)c3)c(-c3ccccc3)nc2c1 [Compound 101, N-{7-[2-(acetylamino)ethyl]-2-phenylimidazo[1,2-a]pyridin-3-yl}-3-(1-methyl-1H-pyrazol-3-yl)-4-(trifluoromethyl) benzamide] | 10 nM |
| CNCCc1ccn2c(NC(=O)c3ccc(C(F)(F)F)c(-c4ccn(C)n4)c3)c(-c3ccccc3)nc2c1 [Compound 109, N-{7-[2-(methylamino)ethyl]-2-phenylimidazo[1,2-a]pyridin-3-yl}-3-(1-methyl-1H-pyrazol-3-yl)-4-(trifluoromethyl) benzamide] | 169 nM |
| Cn1ccc(-c2cc(C(=O)Nc3c(-c4ccccc4)nn4cc(C#N)ccc34)c(F)cc2C(F)(F)F)n1 [Compound 111, N-(6-cyano-2-phenylpyrazolo[1,5-a]pyridin-3-yl)-2-fluoro-5-(1-methyl-1H-pyrazol-3-yl)-4-(trifluoromethyl) benzamide] | 1000 nM |

Now those with a lower IC50, led by results:

| IC50 | SMILES |
| --- | --- |
| 3.1 nM | Cn1ccc(-c2cc(C(=O)Nc3c(-c4ccccc4)nc4cc(CNS(C)(=O)=O)ccn34)ccc2C(F)(F)F)n1 [Compound 84, 3-(1-methyl-1H-pyrazol-3-yl)-N-(7-{[(methylsulfonyl)amino]methyl}-2-phenylimidazo[1,2-a]pyridin-3-yl)-4-(trifluoromethyl) benzamide] |
| 2.6 nM | N#Cc1ccc2[nH]c(-c3ccccc3)c(NC(=O)c3cc(-c4ncccn4)c(C(F)(F)F)cc3F)c2c1 [Compound 86, N-(5-cyano-2-phenyl-1H-indol-3-yl)-2-fluoro-5-pyrimidin-2-yl-4-(trifluoromethyl) benzamide] |
| 0.68 nM | Cc1csc(-c2ccn3c(NC(=O)c4ccc(C(F)(F)F)c(-c5ccn(C)n5)c4)c(-c4ccccc4)nc3c2)n1 [Compound 87, 3-(1-methyl-1H-pyrazol-3-yl)-N-[7-(4-methyl-1,3-thiazol-2-yl)-2-phenylimidazo[1,2-a]pyridin-3-yl]-4-(trifluoromethyl) benzamide] |
| 1.2 nM | Cn1ccc(-c2cc(C(=O)Nc3c(-c4ccccc4)nc4cc(N5CCOCC5)ccn34)ccc2C(F)(F)F)n1 [Compound 88, 3-(1-methyl-1H-pyrazol-3-yl)-N-(7-morpholin-4-yl-2-phenylimidazo[1,2-a]pyridin-3-yl)-4-(trifluoromethyl) benzamide] |
| 3.8 nM | Cn1ccc(-c2cc(C(=O)Nc3c(-c4ccccc4)nc4cc(N5CCNCC5)ccn34)ccc2C(F)(F)F)n1 [Compound 90, 3-(1-methyl-1H-pyrazol-3-yl)-N-(2-phenyl-7-piperazin-1-ylimidazo[1,2-a]pyridin-3-yl)-4-(trifluoromethyl) benzamide] |
| 2.1 nM | Cn1ccc(-c2cc(C(=O)Nc3c(-c4ccccc4)nc4cc(CCO)ccn34)ccc2C(F)(F)F)n1 [Compound 99, N-[7-(2-hydroxyethyl)-2-phenylimidazo[1,2-a]pyridin-3-yl]-3-(1-methyl-1H-pyrazol-3-yl)-4-(trifluoromethyl) benzamide] |
| 4.3 nM | Cn1ccc(-c2cc(C(=O)Nc3c(-c4ccccc4)nc4cc(CCNS(C)(=O)=O)ccn34)ccc2C(F)(F)F)n1 [Compound 102, 3-(1-methyl-1H-pyrazol-3-yl)-N-(7-{2-[(methylsulfonyl)amino]ethyl}-2-phenylimidazo[1,2-a]pyridin-3-yl)-4-(trifluoromethyl) benzamide] |
| 0.94 nM | Cn1ccc(-c2cc(C(=O)Nc3c(-c4ccccc4)nn4ccc(C(C)(C)O)cc34)c(F)cc2C(F)(F)F)n1 [Compound 103, 2-fluoro-N-[5-(1-hydroxy-1-methylethyl)-2-phenylpyrazolo[1,5-a]pyridin-3-yl]-5-(1-methyl-1H-pyrazol-3-yl)-4-(trifluoromethyl) benzamide] |
| 1.7 nM | COC(=O)NCCc1ccn2c(NC(=O)c3ccc(C(F)(F)F)c(-c4ccn(C)n4)c3)c(-c3ccccc3)nc2c1 [Compound 104, methyl{2-[3-({[3-(1-methyl-1H-pyrazol-3-yl)-4-(trifluoromethyl)phenyl]carbonyl}amino)-2-phenylimidazo[1,2-a]pyridin-7-yl]ethyl}carbamate] |
| 1.4 nM | O=C(Nc1c(-c2ccccc2)nc2ccccn12)c1cc(-c2ncccn2)c(C(F)(F)F)cc1F [Compound 105, 2-fluoro-N-(2-phenylimidazo[1,2-a]pyridin-3-yl)-5-pyrimidin-2-yl-4-(trifluoromethyl) benzamide] |
| 1 nM | Cn1ccc(-c2cc(C(=O)Nc3c(-c4ccccc4)[nH]c4ccc(C#N)cc34)c(F)cc2C(F)(F)F)n1 [Compound 108, N-(5-cyano-2-phenyl-1H-indol-3-yl)-2-fluoro-5-(1-methyl-1H-pyrazol-3-yl)-4-(trifluoromethyl) benzamide] |
| 3.6 nM | Cn1ccc(-c2cc(C(=O)Nc3c(-c4ccccc4)[nH]c4ccc(C(=O)O)cc34)c(F)cc2C(F)(F)F)n1 [Compound 110, 3-({[2-fluoro-5-(1-methyl-1H-pyrazol-3-yl)-4-(trifluoromethyl)phenyl]carbonyl}amino)-2-phenyl-1H-indole-5-carboxylic acid] |
| 3.7 nM | C[C@@H](O)c1ccn2c(NC(=O)c3cc(-c4ccn(C)n4)c(C(F)(F)CF)cc3F)c(-c3ccccc3)nc2c1 [Compound 115, 2-fluoro-N-{7-[(1R)-1-hydroxyethyl]-2-phenylimidazo[1,2-a]pyridin-3-yl}-5-(1-methyl-1H-pyrazol-3-yl)-4-(1,1,2-trifluoroethyl)benzamide] |
